The source made the active and inactive calls. No cut-off for these calls is given here.
What was measured:
[1] = test system: Splenic lymphocyte; assay: Immunopotentiating activity in splenic lymphocytes (unknown origin) assessed as effect on proliferation by measuring cell viability pretreated followed by incubation of lymphocytes with ConA for 48 hrs by MTT assay; assay type: functional, cell-based
[2] = test system: Splenic lymphocyte; assay: Immunopotentiating activity in splenic lymphocytes (unknown origin) assessed as effect on proliferation by measuring cell viability pretreated followed by incubation of lymphocytes with LPS for 48 hrs by MTT assay; assay type: functional, cell-based
[3] = test system: Mus musculus; assay: Immunopotentiating activity in sheep RBC-immunized BALB/c mouse assessed as B-cell activation by measuring IgM antibody titer in serum at 0.001 mg/kg, po for 14 days measured on day 7 post dose by hemagglutinination technique; assay type: functional, organism-based
[4] = test system: Mus musculus; assay: Immunopotentiating activity in sheep RBC-immunized BALB/c mouse assessed as B-cell activation by measuring IgM antibody titer in serum at 0.01 mg/kg, po for 14 days measured on day 7 post dose by hemagglutinination technique; assay type: functional, organism-based
[5] = test system: Mus musculus; assay: Immunopotentiating activity in sheep RBC-immunized BALB/c mouse assessed as B-cell activation by measuring IgM antibody titer in serum at 0.1 mg/kg, po for 14 days measured on day 7 post dose by hemagglutinination technique; assay type: functional, organism-based
[6] = test system: Mus musculus; assay: Immunopotentiating activity in sheep RBC-immunized BALB/c mouse assessed as B-cell activation by measuring IgG antibody titer in serum at 0.001 mg/kg, po for 14 days by hemagglutinination technique; assay type: functional, organism-based
[7] = test system: Mus musculus; assay: Immunopotentiating activity in sheep RBC-immunized BALB/c mouse assessed as B-cell activation by measuring IgG antibody titer in serum at 0.01 mg/kg, po for 14 days by hemagglutinination technique; assay type: functional, organism-based
[8] = test system: Mus musculus; assay: Immunopotentiating activity in sheep RBC-immunized BALB/c mouse assessed as B-cell activation by measuring IgG antibody titer in serum at 0.1 mg/kg, po for 14 days by hemagglutinination technique; assay type: functional, organism-based
[9] = test system: Mus musculus; assay: Immunopotentiating activity in sheep RBC-immunized BALB/c mouse assessed as increase in delayed-type hypersensitivity response by measuring left hind foot pad thickness at 0.001 mg/kg, po qd administered 2 hrs post immunization for 7 days measured 24 to 48 hrs post SRBC challenge by spheromicrometer method; assay type: functional, organism-based
[10] = test system: Mus musculus; assay: Immunopotentiating activity in sheep RBC-immunized BALB/c mouse assessed as increase in isolated splenic T-cell proliferation administered orally for 14 days followed by incubation of isolated splenocytes with ConA for 72 hrs by MTT assay; assay type: functional
[11] = test system: Mus musculus; assay: Immunopotentiating activity in sheep RBC-immunized BALB/c mouse assessed as increase in isolated splenic T-cell proliferation administered orally for 14 days followed by incubation of isolated splenocytes with LPS for 72 hrs by MTT assay; assay type: functional
[12] = test system: Mus musculus; assay: Immunopotentiating activity in sheep RBC-immunized BALB/c mouse assessed as increase in isolated splenic […] proliferation administered orally for 14 days followed by incubation of isolated splenocytes with ConA for 72 hrs by MTT assay; assay type: functional
[13] = test system: Mus musculus; assay: Immunopotentiating activity in sheep RBC-immunized BALB/c mouse assessed as increase in isolated splenic B-cell proliferation administered orally for 14 days followed by incubation of isolated splenocytes with LPS for 72 hrs by MTT assay; assay type: functional
[14] = test system: Mus musculus; assay: Immunopotentiating activity in sheep RBC-immunized BALB/c mouse assessed as CD4-positive splenic T-cells at 0.001 mg/kg, po for 14 days by flow cytometry (reference value: 20.7 +/- 0.9%); assay type: functional
[15] = test system: Mus musculus; assay: Immunopotentiating activity in sheep RBC-immunized BALB/c mouse assessed as CD4-positive splenic T-cells at 0.01 mg/kg, po for 14 days by flow cytometry (reference value: 20.7 +/- 0.9%); assay type: functional
[16] = test system: Mus musculus; assay: Immunopotentiating activity in sheep RBC-immunized BALB/c mouse assessed as CD4-positive splenic T-cells at 0.1 mg/kg, po for 14 days by flow cytometry (reference value: 20.7 +/- 0.9%); assay type: functional
[17] = test system: Mus musculus; assay: Immunopotentiating activity in sheep RBC-immunized BALB/c mouse assessed as CD8-positive splenic T-cells at 0.001 mg/kg, po for 14 days by flow cytometry (reference value: 13.3 +/- 0.34%); assay type: functional
[18] = test system: Mus musculus; assay: Immunopotentiating activity in sheep RBC-immunized BALB/c mouse assessed as CD8-positive splenic T-cells at 0.01 mg/kg, po for 14 days by flow cytometry (reference value: 13.3 +/- 0.34%); assay type: functional
[19] = test system: Mus musculus; assay: Immunopotentiating activity in sheep RBC-immunized BALB/c mouse assessed as CD8-positive splenic T-cells at 0.1 mg/kg, po for 14 days by flow cytometry (reference value: 13.3 +/- 0.34%); assay type: functional
[20] = test system: Mus musculus; assay: Immunopotentiating activity in sheep RBC-immunized BALB/c mouse assessed as ratio of CD4-positive splenic T-cells to CD8-positive splenic T-cells at 0.001 mg/kg, po for 14 days by flow cytometry (RVB = 1.56 +/- 0.09); assay type: functional
[21] = test system: Mus musculus; assay: Immunopotentiating activity in sheep RBC-immunized BALB/c mouse assessed as ratio of CD4-positive splenic T-cells to CD8-positive splenic T-cells at 0.01 mg/kg, po for 14 days by flow cytometry (RVB = 1.56 +/- 0.09); assay type: functional
[22] = test system: Mus musculus; assay: Immunopotentiating activity in sheep RBC-immunized BALB/c mouse assessed as ratio of CD4-positive splenic T-cells to CD8-positive splenic T-cells at 0.1 mg/kg, po for 14 days by flow cytometry (RVB = 1.56 +/- 0.09); assay type: functional
[23] = test system: Mus musculus; assay: Immunopotentiating activity in sheep RBC-immunized BALB/c mouse assessed as CD4-positive T-cell content in spleen at 0.001 mg/kg, po for 14 days by flow cytometry (reference value: 2.7 +/- 0.12 10^7No_unit); assay type: functional
[24] = test system: Mus musculus; assay: Immunopotentiating activity in sheep RBC-immunized BALB/c mouse assessed as CD4-positive T-cell content in spleen at 0.01 mg/kg, po for 14 days by flow cytometry (reference value: 2.7 +/- 0.12 10^7No_unit); assay type: functional
[25] = test system: Mus musculus; assay: Immunopotentiating activity in sheep RBC-immunized BALB/c mouse assessed as CD4-positive T-cell content in spleen at 0.1 mg/kg, po for 14 days by flow cytometry (reference value: 2.7 +/- 0.12 10^7No_unit); assay type: functional
[26] = test system: Mus musculus; assay: Immunopotentiating activity in sheep RBC-immunized BALB/c mouse assessed as CD8-positive T-cell content in spleen at 0.001 mg/kg, po for 14 days by flow cytometry (reference value: 1.47 +/- 0.04 10^7No_unit); assay type: functional
[27] = test system: Mus musculus; assay: Immunopotentiating activity in sheep RBC-immunized BALB/c mouse assessed as CD8-positive T-cell content in spleen at 0.01 mg/kg, po for 14 days by flow cytometry (reference value: 1.47 +/- 0.04 10^7No_unit); assay type: functional
[28] = test system: Mus musculus; assay: Immunopotentiating activity in sheep RBC-immunized BALB/c mouse assessed as CD8-positive T-cell content in spleen at 0.1 mg/kg, po for 14 days by flow cytometry (reference value: 1.47 +/- 0.04 10^7No_unit); assay type: functional
[29] = test system: Mus musculus; assay: Immunopotentiating activity in sheep RBC-immunized BALB/c mouse assessed as increase in IL2 production in splenocytes administered orally for 14 days followed by incubation with ConA for 48 hrs by ELISA; assay type: functional, cell-based
[30] = test system: Mus musculus; assay: Immunopotentiating activity in sheep RBC-immunized BALB/c mouse assessed as increase in interferon-gamma production in splenocytes administered orally for 14 days followed by incubation with ConA for 48 hrs by ELISA; assay type: functional, cell-based
[31] = test system: Mus musculus; assay: Immunopotentiating activity in sheep RBC-immunized BALB/c mouse assessed as increase in IL4 production in splenocytes administered orally for 14 days followed by incubation with ConA for 48 hrs by ELISA; assay type: functional, cell-based
[32] = test system: Mus musculus; assay: Immunopotentiating activity in sheep RBC-immunized BALB/c mouse assessed as increase in macrophage production by measuring increase in NO production administered orally for 14 days followed by incubation with LPS for 48 hrs by Griess assay; assay type: functional
[33] = species: Mus musculus; assay: Cytotoxicity in BALB/c mouse splenocytes at 100 ug/ml measured after 72 hrs by MTT assay; assay type: toxicity; conditions: splenocyte

Row | Structure (SMILES) | Activity [1] | Activity [2] | Activity [3] | Activity [4] | Activity [5] | Activity [6] | Activity [7] | Activity [8] | Activity [9] | Activity [10] | Activity [11] | Activity [12] | Activity [13] | Activity [14] [%] | Activity [15] [%] | Activity [16] [%] | Activity [17] [%] | Activity [18] [%] | Activity [19] [%] | Ratio [20] | other results
1 | COc1ccccc1C1=NOC(COc2ccc3ccc(=O)oc3c2)C1 (centres undefined) | Dose-dependent effect | Dose-dependent effect | Active | Active | Active | Active | Active | Active | Active | Dose-dependent effect | Dose-dependent effect | Dose-dependent effect | Dose-dependent effect | 20.3 | 24.2 | 31.1 | 15.4 | 15.3 | 18.4 | 1.32 | Ratio [21]: 1.58; Ratio [22]: 1.69; Activity [23]: 1.02 ×10⁷ No_unit; Activity [24]: 1.31 ×10⁷ No_unit; Activity [25]: 1.51 ×10⁷ No_unit; Activity [26]: 0.88 ×10⁷ No_unit; Activity [27]: 1.18 ×10⁷ No_unit; Activity [28]: 1.37 ×10⁷ No_unit; Activity [29]: Dose-dependent effect; Activity [30]: Dose-dependent effect; Activity [31]: Dose-dependent effect; Activity [32]: Dose-dependent effect; Activity [33]: Non-Toxic
2 | COc1ccc(C2=NOC(COc3ccc4ccc(=O)oc4c3)C2)cc1 (centres undefined) | Dose-dependent effect | Dose-dependent effect | Active | Active | Active | Active | Active | Active | Active | Dose-dependent effect | Dose-dependent effect | Dose-dependent effect | Dose-dependent effect | 30.3 | 34.2 | 40.2 | 16.4 | 19.8 | 21.6 | 1.32 | Ratio [21]: 1.72; Ratio [22]: 1.86; Activity [23]: 1.23 ×10⁷ No_unit; Activity [24]: 1.61 ×10⁷ No_unit; Activity [25]: 1.85 ×10⁷ No_unit; Activity [26]: 1.26 ×10⁷ No_unit; Activity [27]: 1.35 ×10⁷ No_unit; Activity [28]: 1.48 ×10⁷ No_unit; Activity [29]: Dose-dependent effect; Activity [30]: Dose-dependent effect; Activity [31]: Dose-dependent effect; Activity [32]: Dose-dependent effect; Activity [33]: Non-Toxic
3 | COc1ccc(C2=NOC(COc3ccc4ccc(=O)oc4c3)C2)c(OC)c1 (centres undefined) | Dose-dependent effect | Dose-dependent effect | Active | Active | Active | Active | Active | Active | Active | Dose-dependent effect | Dose-dependent effect | Dose-dependent effect | Dose-dependent effect | 20.3 | 27.2 | 35.3 | 15.4 | 16.2 | 19.9 | 1.32 | Ratio [21]: 1.67; Ratio [22]: 1.77; Activity [23]: 1.16 ×10⁷ No_unit; Activity [24]: 1.54 ×10⁷ No_unit; Activity [25]: 1.67 ×10⁷ No_unit; Activity [26]: 1.19 ×10⁷ No_unit; Activity [27]: 1.29 ×10⁷ No_unit; Activity [28]: 1.41 ×10⁷ No_unit; Activity [29]: Dose-dependent effect; Activity [30]: Dose-dependent effect; Activity [31]: Dose-dependent effect; Activity [32]: Dose-dependent effect; Activity [33]: Non-Toxic

— ChEMBL document CHEMBL3872204, “Synthesis and immunopotentiating activity of novel isoxazoline functionalized coumarins” (Eur J Med Chem, 2016)
